From US8921267B2, “Safening 6-(trisubstituted phenyl)-4-amino-2-pyridinecarboxylate herbicide injury on cereal crops” (Dow AgroSciences LLC, priority 2008, dated 2014)

How the values were obtained:
Type in all cases: in vivo
[1] = test system: purple deadnettle (Lamium purpureum L; LAMPU); assay: Postemergence herbicidal activity, greenhouse, visual injury: purple deadnettle; design: key: visual injury, 0–100%: 0 = no injury, 100 = complete kill
Experimental: (§1) Evaluation of Postemergence Herbicidal Safening in Cereal Crops
(§2) Seeds of the desired test plant species were planted in Sun Gro MetroMix® 306 planting mixture, which typically has a pH of 6.0 to 6.8 and an organic matter content of about 30 percent, in plastic pots with a surface area of 103.2 square centimeters (cm^2). When required to ensure good germination and healthy plants, a fungicide treatment and/or other chemical or physical treatment was applied. The plants were grown for 7-36 days (d) in a greenhouse with an approximate 14-hour (h) photoperiod which was maintained at about 18° C. during the day and 17° C. during the night. Nutrients and water were added on a regular basis and supplemental lighting was provided with overhead metal halide 1000-Watt lamps as necessary. The plants were employed for testing when they reached the second or third true leaf stage.
(§3) Weighed amounts of esters (methyl) or salts (TEA [triethylammonium], K [potassium]) of 4-amino-3-chloro-6-(4-chloro-2-fluoro-3-methoxyphenyl)pyridine-2-carboxylic acid (Compound 1) were dissolved in a volume of 97:3 volume/volume (v/v) acetone/dimethylsulfoxide (DMSO) to obtain stock solutions. […] The concentrated stock solutions were diluted with an aqueous mixture of 1.5% v/v of Agri-dex crop oil concentrate to provide the appropriate application rates. Compound requirements are based upon a 12 mL application volume at a rate of 187 liters per hectare (L/ha). Stocks solutions of the safeners were prepared following the same procedure. Spray solutions of the safeners and experimental compound mixtures were prepared by adding the stock solutions to the appropriate amount of dilution solution to form a 12 mL spray solution with active ingredients in two-way combinations. Formulated compounds were applied to the plant material with an overhead Mandel track sprayer equipped with 8002E nozzles calibrated to deliver 187 L/ha over an application area of 0.503 square meters (m^2) at a spray height of 18 inches (43 centimeters (cm)) above average plant canopy. Control plants were sprayed in the same manner with the solvent blank.
(§4) The treated plants and control plants were placed in a greenhouse as described above and watered by sub-irrigation to prevent wash-off of the test compounds. After 20-22 d, the condition of the test plants as compared with that of the control plants was determined visually and scored on a scale of 0 to 100 percent where 0 corresponds to no injury and 100 corresponds to complete kill.
(§5) Colby's equation was used to determine the herbicidal effects expected from the mixtures (Colby, S. R. Calculation of the synergistic and antagonistic response of herbicide combinations. Weeds 1967, 15, 20-22.).
(§6) The following equation was used to calculate the expected activity of mixtures containing two active ingredients, A and B: Expected=A+B−(A×B/100)
(§7) A=observed efficacy of active ingredient A at the same concentration as used in the mixture.
(§8) B=observed efficacy of active ingredient B at the same concentration as used in the mixture.

[2] = test system: corn poppy (Papaver rhoeas L; PAPRH); assay: Postemergence herbicidal activity, greenhouse, visual injury: corn poppy
Experimental: as §1, §2, §3, §4, §5, §6, §7, §8

[3] = test system: cleavers (Galium aparine L; GALAP); assay: Postemergence herbicidal activity, greenhouse, visual injury: cleavers; design: key: visual injury, 0–100%: 0 = no injury, 100 = complete kill
Experimental: as §1, §2, §3, §4, §5, §6, §7, §8

[4] = test system: bird's-eye speedwell (Veronica persica L; VERPE); assay: Postemergence herbicidal activity, greenhouse, visual injury: bird's-eye speedwell; design: key: visual injury, 0–100%: 0 = no injury, 100 = complete kill
Experimental: as §1, §2, §3, §4, §5, §6, §7, §8

[5] = test system: wheat (Triticum aestivum L; TRZAS); assay: Postemergence herbicidal safening, greenhouse, visual injury: wheat
Experimental: as §1, §2, §3, §4, §5, §6, §7, §8

[6] = test system: barley (Hordeum vulgare L; HORVS); assay: Postemergence herbicidal safening, greenhouse, visual injury: barley
Experimental: as §1, §2, §3, §4, §5, §6, §7, §8

[7] = test system: chickweed (Stellaria media L; STEME); assay: Postemergence herbicidal activity, greenhouse, visual injury: chickweed; design: key: visual injury, 0–100%: 0 = no injury, 100 = complete kill
Experimental: as §1, §2, §3, §4, §5, §6, §7, §8

[8] = test system: Russian thistle (Salsola iberica L; SASKR); assay: Postemergence herbicidal activity, greenhouse, visual injury: Russian thistle; design: key: visual injury, 0–100%: 0 = no injury, 100 = complete kill
Experimental: as §1, §2, §3, §4, §5, §6, §7, §8

[9] = test system: wild buckwheat (Polygonum convolvulus L; POLCO); assay: Postemergence herbicidal activity, greenhouse, visual injury: wild buckwheat
Experimental: as §1, §2, §3, §4, §5, §6, §7, §8

[10] = test system: wild pansy (Viola tricolor L; VIOTR); assay: Postemergence herbicidal activity, greenhouse, visual injury: wild pansy; design: key: visual injury, 0–100%: 0 = no injury, 100 = complete kill
Experimental: as §1, §2, §3, §4, §5, §6, §7, §8

O=C(O)c1nc(C(Cl)(Cl)Cl)n(-c2ccc(Cl)cc2Cl)n1 [Fenchlorazole]
0: LAMPU Ob (Observed values) ([1]; safener 4.4 g/ha alone) | LAMPU Ob (Observed values) ([1]; safener 8.8 g/ha alone) | LAMPU Ob (Observed values) ([1]; safener 17.5 g/ha alone) | LAMPU Ob (Observed values) ([1]; safener 35 g/ha alone) | PAPRH Ob (Observed values) ([2]; safener 4.4 g/ha alone) | PAPRH Ob (Observed values) ([2]; safener 8.8 g/ha alone) | PAPRH Ob (Observed values) ([2]; safener 17.5 g/ha alone) | PAPRH Ob (Observed values) ([2]; safener 35 g/ha alone)

FC(F)(F)C(=NOCC1OCCO1)c1ccc(Cl)cc1 [Fluxofenim]
0%: TRZAS Ob ([5]; applied alone, 17.5 g/ha) | TRZAS Ob ([5]; applied alone, 35 g/ha) | TRZAS Ob ([5]; applied alone, 70 g/ha) | TRZAS Ob ([5]; applied alone, 140 g/ha) | HORVS Ob ([6]; applied alone, 17.5 g/ha) | HORVS Ob ([6]; applied alone, 35 g/ha) | HORVS Ob ([6]; applied alone, 70 g/ha) | HORVS Ob ([6]; applied alone, 140 g/ha)
0: GALAP Ob ([3]; applied alone, 17.5 g/ha) | GALAP Ob ([3]; applied alone, 35 g/ha) | GALAP Ob ([3]; applied alone, 70 g/ha) | GALAP Ob ([3]; applied alone, 140 g/ha) | VERPE Ob ([4]; applied alone, 17.5 g/ha) | VERPE Ob ([4]; applied alone, 35 g/ha) | VERPE Ob ([4]; applied alone, 70 g/ha) | VERPE Ob ([4]; applied alone, 140 g/ha) | STEME Ob ([7]; applied alone, 17.5 g/ha) | STEME Ob ([7]; applied alone, 35 g/ha) | STEME Ob ([7]; applied alone, 70 g/ha) | STEME Ob ([7]; applied alone, 140 g/ha) | SASKR Ob ([8]; applied alone, 17.5 g/ha) | SASKR Ob ([8]; applied alone, 35 g/ha) | SASKR Ob ([8]; applied alone, 70 g/ha) | SASKR Ob ([8]; applied alone, 140 g/ha) | POLCO Ob ([9]; applied alone, 17.5 g/ha) | POLCO Ob ([9]; applied alone, 35 g/ha) | POLCO Ob ([9]; applied alone, 70 g/ha) | POLCO Ob ([9]; applied alone, 140 g/ha) | PAPRH Ob ([2]; applied alone, 17.5 g/ha) | PAPRH Ob ([2]; applied alone, 35 g/ha) | PAPRH Ob ([2]; applied alone, 70 g/ha) | PAPRH Ob ([2]; applied alone, 140 g/ha) | VIOTR Ob ([10]; applied alone, 17.5 g/ha) | VIOTR Ob ([10]; applied alone, 35 g/ha) | VIOTR Ob ([10]; applied alone, 70 g/ha) | VIOTR Ob ([10]; applied alone, 140 g/ha)

Cc1ccc(NC(=O)NC(C)(C)c2ccccc2)cc1 [Daimuron]
0: LAMPU Ob (Observed values) ([1]; safener 4.4 g/ha alone) | LAMPU Ob (Observed values) ([1]; safener 8.8 g/ha alone) | LAMPU Ob (Observed values) ([1]; safener 17.5 g/ha alone) | LAMPU Ob (Observed values) ([1]; safener 35 g/ha alone) | PAPRH Ob (Observed values) ([2]; safener 4.4 g/ha alone) | PAPRH Ob (Observed values) ([2]; safener 8.8 g/ha alone) | PAPRH Ob (Observed values) ([2]; safener 17.5 g/ha alone) | PAPRH Ob (Observed values) ([2]; safener 35 g/ha alone)

O=C(C(Cl)Cl)N1CCOC12CCCCC2 [AD67, 4-(dichloroacetyl)-1-oxa-4-azaspiro[4,5]decane, reference compound]
0%: GALAP Ob ([3]; applied alone at 17.5 g/ha) | GALAP Ob ([3]; applied alone at 35 g/ha) | GALAP Ob ([3]; applied alone at 70 g/ha) | GALAP Ob ([3]; applied alone at 140 g/ha) | VERPE Ob ([4]; applied alone at 17.5 g/ha) | VERPE Ob ([4]; applied alone at 35 g/ha) | VERPE Ob ([4]; applied alone at 70 g/ha) | VERPE Ob ([4]; applied alone at 140 g/ha) | TRZAS Ob ([5]; applied alone at 17.5 g/ha) | TRZAS Ob ([5]; applied alone at 35 g/ha) | TRZAS Ob ([5]; applied alone at 70 g/ha) | TRZAS Ob ([5]; applied alone at 140 g/ha) | HORVS Ob ([6]; applied alone at 17.5 g/ha) | HORVS Ob ([6]; applied alone at 35 g/ha) | HORVS Ob ([6]; applied alone at 70 g/ha) | HORVS Ob ([6]; applied alone at 140 g/ha) | STEME Ob ([7]; applied alone at 17.5 g/ha) | STEME Ob ([7]; applied alone at 35 g/ha) | STEME Ob ([7]; applied alone at 70 g/ha) | STEME Ob ([7]; applied alone at 140 g/ha) | SASKR Ob ([8]; applied alone at 17.5 g/ha) | SASKR Ob ([8]; applied alone at 35 g/ha) | SASKR Ob ([8]; applied alone at 70 g/ha) | SASKR Ob ([8]; applied alone at 140 g/ha) | POLCO Ob ([9]; applied alone at 17.5 g/ha) | POLCO Ob ([9]; applied alone at 35 g/ha) | POLCO Ob ([9]; applied alone at 70 g/ha) | POLCO Ob ([9]; applied alone at 140 g/ha) | PAPRH Ob ([2]; applied alone at 17.5 g/ha) | PAPRH Ob ([2]; applied alone at 35 g/ha) | PAPRH Ob ([2]; applied alone at 70 g/ha) | PAPRH Ob ([2]; applied alone at 140 g/ha) | VIOTR Ob ([10]; applied alone at 17.5 g/ha) | VIOTR Ob ([10]; applied alone at 35 g/ha) | VIOTR Ob ([10]; applied alone at 70 g/ha) | VIOTR Ob ([10]; applied alone at 140 g/ha)

O=C1OC(=O)c2cccc3cccc1c23 [Naphthalic anhydride]
0: GALAP Ob ([3]; applied alone, 17.5 g/ha) | GALAP Ob ([3]; applied alone, 35 g/ha) | GALAP Ob ([3]; applied alone, 70 g/ha) | GALAP Ob ([3]; applied alone, 140 g/ha) | VERPE Ob ([4]; applied alone, 17.5 g/ha) | VERPE Ob ([4]; applied alone, 35 g/ha) | VERPE Ob ([4]; applied alone, 70 g/ha) | VERPE Ob ([4]; applied alone, 140 g/ha) | STEME Ob ([7]; applied alone, 17.5 g/ha) | STEME Ob ([7]; applied alone, 35 g/ha) | STEME Ob ([7]; applied alone, 70 g/ha) | STEME Ob ([7]; applied alone, 140 g/ha) | SASKR Ob ([8]; applied alone, 17.5 g/ha) | SASKR Ob ([8]; applied alone, 35 g/ha) | SASKR Ob ([8]; applied alone, 70 g/ha) | SASKR Ob ([8]; applied alone, 140 g/ha) | POLCO Ob ([9]; applied alone, 17.5 g/ha) | POLCO Ob ([9]; applied alone, 35 g/ha) | POLCO Ob ([9]; applied alone, 70 g/ha) | POLCO Ob ([9]; applied alone, 140 g/ha) | PAPRH Ob ([2]; applied alone, 17.5 g/ha) | PAPRH Ob ([2]; applied alone, 35 g/ha) | PAPRH Ob ([2]; applied alone, 70 g/ha) | PAPRH Ob ([2]; applied alone, 140 g/ha) | VIOTR Ob ([10]; applied alone, 17.5 g/ha) | VIOTR Ob ([10]; applied alone, 35 g/ha) | VIOTR Ob ([10]; applied alone, 70 g/ha) | VIOTR Ob ([10]; applied alone, 140 g/ha)
